These results are taken from PMC10026764, “Overcoming the imatinib-resistant BCR-ABL mutants with new ureidobenzothiazole chemotypes endowed with potent and broad-spectrum anticancer activity” (Journal of Enzyme Inhibition and Medicinal Chemistry, 2023).

Each structure is given as a SMILES string. Values joined by “and” are separate entries in the source; they are usually repeats but may differ in a detail not shown here. Equal values may be shown once. Read-outs that look alike come from different tables or passages of the source. Bounds are passed on as bounds.

In one test the test system is leukaemia K-562 cells. The test can be described thus: MTT antiproliferative assay. The following applies: for GI50: Homo sapiens, K562, 72 h, read-out: GI50 K-562; for SI: selectivity index (GI50 (L132)/GI50 (K562)): MTT, 72 h.
For test [1], the target named is T1, BCR-ABL^T315I (Homo sapiens, UniProt P00519, T315I).
T1 construct: purchased Reaction Biology Corporation (RBC, Malvern, PA, USA)
The test can be described thus: In vitro kinase screening (RBC), BCR-ABL^T315I. The test is classed as biochemical. The note with it: 10-dose IC50 mode, 3-fold serial dilution, 10 μM ATP.

The next test deals with L132 normal cell. The test can be described thus: MTT antiproliferative assay. The following applies: Homo sapiens, L132, 72 h, read-out: GI50 L132.
The next test concerns the target DDR1 (Homo sapiens, UniProt Q08345). The test can be described thus: Kinase selectivity test against DDR1. In kind it is biochemical. The protocol: On the other hand, to gain certain insights about the kinase selectivity of this array of ureidobenzothiazoles, compounds 2a and 2b were tested against DDR1 (Figure 4). Discoidin domain receptors (DDR1/2) are transmembrane receptor tyrosine kinases (RTKs), activated by fibrillar collagens. DDR1/2 and BCR-ABL share almost 61% sequence similarities in their ATP binding domains. […] This observation points out the merit of these ureidobenzothiazoles over the known BCR-ABL inhibitors in achieving exceptional selectivity towards BCR-ABL.

Test [2] has as its target T2, BCR-ABL^WT (Homo sapiens, UniProt P00519). The test can be described thus: In vitro kinase screening (RBC), BCR-ABL^WT. The test is classed as biochemical. The note with it: 10-dose IC50 mode, 3-fold serial dilution, 10 μM ATP.
Test [3] addresses T1, BCR-ABL^T315I. The following applies: reported values ref 19; cited from earlier work.
The next test deals with K-562 cell line. Also on record: method as in PMID 25881828. The note with it: K-562, single dose 10 μM; cited from earlier work.
In test [4] the target is T2, BCR-ABL^WT. Also on record: method as in PMID 25881828. The following applies: reported values ref 19; cited from earlier work.
The test system of a further test is NCI-60 cell lines. Nature of the test: NCI-60 single dose SRB assay (panel). The test is classed as cell-based. The note with it: single dose 10 μM. An excerpt:
To gain further insights about the anticancer profile of this new ureidobenzothiazole chemotypes, the structures of all final compounds were submitted to the National Cancer Institute (NCI, Developmental Therapeutics Program, Bethesda, MD, USA). Based on NCI selection criteria, compounds 2b (AK-HW-90), 2e, and 2f were chosen for broad screening against a library of 60 human cancer cell lines, representing nine types of blood and solid cancers. Employing the highly sensitive sulforhodamine B (SRB) assay, compounds 2b, 2e, and 2f were tested initially at a single dose of 10 μM, and their detailed activities on the percentages growth of the NCI-60 cell lines were illustrated in Figure 5, and compared with that observed for the lead benzothiazole AKE-5l.

Chain of DDR1 (Q08345 19-913, species assumed): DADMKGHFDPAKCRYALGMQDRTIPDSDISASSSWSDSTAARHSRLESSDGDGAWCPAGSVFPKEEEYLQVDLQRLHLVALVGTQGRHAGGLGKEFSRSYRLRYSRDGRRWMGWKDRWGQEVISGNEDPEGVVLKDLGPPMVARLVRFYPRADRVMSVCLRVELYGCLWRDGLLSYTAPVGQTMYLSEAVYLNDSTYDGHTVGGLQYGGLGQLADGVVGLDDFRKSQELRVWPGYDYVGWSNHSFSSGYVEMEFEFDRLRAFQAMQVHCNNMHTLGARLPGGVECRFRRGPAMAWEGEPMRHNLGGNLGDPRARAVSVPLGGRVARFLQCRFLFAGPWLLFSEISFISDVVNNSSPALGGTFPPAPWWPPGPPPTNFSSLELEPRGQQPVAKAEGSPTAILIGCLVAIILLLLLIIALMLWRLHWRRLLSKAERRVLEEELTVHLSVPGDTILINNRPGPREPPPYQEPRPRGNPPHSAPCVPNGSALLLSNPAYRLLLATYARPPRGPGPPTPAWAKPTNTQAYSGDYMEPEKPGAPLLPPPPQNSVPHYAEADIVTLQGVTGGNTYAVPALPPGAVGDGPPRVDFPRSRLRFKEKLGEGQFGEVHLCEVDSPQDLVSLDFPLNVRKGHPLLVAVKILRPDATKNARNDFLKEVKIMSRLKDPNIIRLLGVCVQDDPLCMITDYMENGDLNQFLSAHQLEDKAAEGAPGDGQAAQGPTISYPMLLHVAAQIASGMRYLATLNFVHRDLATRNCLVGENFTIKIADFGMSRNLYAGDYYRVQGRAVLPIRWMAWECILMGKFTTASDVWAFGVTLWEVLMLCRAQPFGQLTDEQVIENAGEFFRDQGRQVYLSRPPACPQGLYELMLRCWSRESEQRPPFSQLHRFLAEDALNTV
Source text for L132 normal cell: (§1) These cellular outcomes define the impact of BCR-ABL inhibition on the proliferation of K-562 cells.
Source text for leukaemia K-562 cells: as §1

In the case of `COc1ccccc1-c1ccc2nc(NC(=O)Nc3cccc(C(F)(F)F)c3)sc2c1` [Compound 2d], in the test with leukaemia K-562 cells, the 50% growth inhibitory concentration (GI50) is over 10000 nM.

`COc1ccccc1-c1ccc2nc(NC(=O)Nc3ccc(N4CCN(C)CC4)cc3)sc2c1` [Compound 2a]: the IC50 was 2 nM and 2.03 nM at BCR-ABL^T315I [1]; 195 nM against DDR1; 1.5 nM on BCR-ABL^WT [2]. The GI50 stood at 4520 nM in the test on leukaemia K-562 cells and 26800 nM in the test with L132 normal cell. Also, the “SI: selectivity index (GI50 (L132)/GI50 (K562))” value in the test with leukaemia K-562 cells came out at 5.9.

Regarding `COc1ccccc1-c1ccc2nc(NC(=O)Nc3ccc(N4CCOCC4)cc3)sc2c1` [Compound 2c], the IC50 was 8.11 nM at BCR-ABL^T315I [1] and 2.16 nM against BCR-ABL^WT [2]. For the same compound, the GI50 was 3820 nM in the test on leukaemia K-562 cells and 26100 nM in the test on L132 normal cell. Also, the “SI: selectivity index (GI50 (L132)/GI50 (K562))” value in the test with leukaemia K-562 cells amounted to 6.8.

With `CNC(=O)c1cc(Oc2ccc3nc(NC(=O)NCCCN4CCN(C)CC4)sc3c2)ccn1` [AKE-5l], the IC50 at BCR-ABL^T315I [3] is 39.9 nM; on BCR-ABL^WT [4] it was 18.2 nM. Besides, the “% growth” value with K-562 cell line is 10.22%.

As for `COc1ccccc1-c1ccc2nc(NC(=O)Nc3ccc(CN4CCOCC4)c(C(F)(F)F)c3)sc2c1` [Compound 2f], the IC50 on BCR-ABL^T315I [1] turned out to be 226 nM; on BCR-ABL^WT [2] it was 74.6 nM. In addition, the GI50 with leukaemia K-562 cells was over 10000 nM. Besides, the “number of cancer cells with cytostatic growth inhibitory activity (% growth less than 40)” value in the test on NCI-60 cell lines worked out at 14 cancer cells.
